Data: PMC7938888, “Antidepressant drugs act by directly binding to TRKB neurotrophin receptors” (Cell, 2021)

Tests used:
[1] = biological target: T1, TRKB (Mus musculus, UniProt P15209); test: Cell-free ligand binding assay on immobilised TRKB from HEK293T lysates; parameters: wild-type GFP-tagged full length TRKB or the GFP-tagged Y433F TRKB mutant; host or cells: HEK293T; details: biotinylated FLX 1 μM
Protocol: (§1) The cell-free assays (binding assays) were performed in white 96-well plates, based on the protocol used for western-blotting or ELISA ([Baeza-Raja et al., 2016]; [Das et al., 2015]). The plates were precoated with anti-GFP, anti-FLAG, anti-TRK or anti-TRKB antibody (1:1000) in carbonate buffer (pH 9.8), ON at 4°C. Following blocking with 3% BSA in PBS buffer (2 h at RT), 120 ug of total protein from each sample (of lysates from HEK293T cells transfected to overexpress GFP-TRKB.wt or GFP-TRKB.Y433F) were added and incubated overnight at 4°C under agitation. […] The luminescence was determined via HRP-conjugated streptavidin (1:10000, 1h, RT) activity reaction with ECL by a plate reader. The luminescence signal from blank wells (containing all the reagents but the sample lystates, substituted by the blocking buffer) was used as background. The specific signal was then calculated by subtracting the values of blank wells from the values of the samples with matched concentration of the biotinylated ligand. For Figure 2E, the precipitated TRKB.wt or Y433F was incubated with tritiated imipramine (0-30μM) and the radioactive emission of the ligand was determined by scintillation (OptiPhase Supermix cocktail: #1200-439; MicroBeta2, Perkin-Elmer). The scintillation signal from blank wells was used as background, and the specific signal was then calculated by subtracting the values of blank wells from the values of the samples with matched concentration of the radioactive ligand.

[2] = test system: mice; test: Ocular dominance plasticity (monocular deprivation, intrinsic signal imaging); format: in vivo, mouse
Protocol: The “transparent skull” preparation was executed as described in literature ([Steinzeig et al., 2017]). Briefly, adult female mice (20-22 weeks old) were anesthetized via i.p. injection with a mixture containing: 0.05 mg/kg fentanyl (Hameln, Germany); 5 mg/kg midazolam (Hameln, Germany); 0.5 mg/kg medetomidine (Orion Pharma, Finland); diluted in saline (B Braun, Germany). The animals’ eyes were covered with protective-gel (Alcon, UK). The animal’s head was shaved and disinfected with ethanol and Betadine. The mouse head was then fixed on the stereotaxic frame and the temperature was maintained at 37°C. A mixture of lidocaine and adrenaline (Orion Pharma, Finland) was applied locally on the head and the skin was cut with spring scissors. The incision area was restricted 2 mm above the bregma and caudal edge of intraparietal bone. The scalp was removed and a focused air stream and a cotton swab were used to clean and stop bleeding. The periosteum was gently scratched away from the skull with an eye scalpel and the temporal muscles were pushed aside, in order to expose enough space around the area of interest to attach the metal holder. When the skull was smooth, white and dry, fat was removed from the skull rapidly by passing on it a cotton swab soaked in acetone and the air current was used to avoid its penetration into the bone. Then, with a metal stick, a thin layer of cyanoacrylate glue (Loctite 401, Henkel, Germany) was applied to the surface of the skull, in order to make the skull transparent. After waiting 10 minutes for the glue to dry, a first layer of acryl was applied on the skull surface with a brush. Acryl was used to prolong the life of the transparency and was prepared by stirring acrylic powder (EUBECOS, Germany) with methacrylate liquid (Densply, Germany) until a nail-polish consistency was reached. After 30 minutes, a second layer of acryl was applied and was left to dry overnight. Finally, the animals were injected s.c. with 5 mg/kg Carprofen (ScanVet, Nord Ireland) for postoperative analgesia and i.p. with a wake-up composed by: 1.2 mg/kg Naloxone (Orpha-Devel Handels und Vertriebs GmbH, Austria), opioid receptor antagonist; 0.5 mg/kg Flumazenil (Hameln, Germany), GABA-A receptor antagonist; 2.5 mg/kg Atipamezole (Vet Medic animal Health Oy, Finland), adrenergic receptor antagonist; diluted in saline (B Braun, Germany). The next day, isoflurane at 4% was used for a couple of minutes to induce the anesthesia and then it was reduced at 2% for the procedure. The acryl layer was polished only on the area of interest, using a hand drill with a polishing bit. […]
Optical imaging. The saturation of haemoglobin in the primary visual cortex of the right hemisphere was measured to assess cortical activity ([Cang et al., 2005]; [Kalatsky and Stryker, 2003]). […]

[3] = test system: NMDA receptors; parameters: method as in Zanos et al., 2016, 2018; details: ref Zanos et al., 2016, 2018; cited from earlier work
[4] = biological target: T1, TRKB; test: Cell-free ligand binding assay on immobilised TRKB from HEK293T lysates; parameters: wild-type GFP-tagged full length TRKB or the GFP-tagged Y433F TRKB mutant; host or cells: HEK293T; details: biotinylated R,R-HNK (Figure 2E)
[5] = test system: TRKB:PLC-γ1 interaction; test: TRKB:PLC-γ1 interaction ELISA in cortical cells; format: cell-based, rat; details: rat cortical cells
Protocol: The TRKB:pY (phosphorylated TRKB), TRKB:PLC-γ1, PLC-γ1:pTRKB.Y816 interactions and were determined by ELISA, based on the general method described in literature ([Antila et al., 2014]; [Fred et al., 2019]), with minor adjustments. Briefly, white 96-well plates (OptiPlate 96F-HB, Perkin Elmer) were coated with capturing anti-TRKB or PLC-γ1 antibody (1:1000) in carbonate buffer (pH = 9.8) overnight (ON) at 4°C. Following a blocking step with 2%BSA in TBS-T (2 h, RT), samples were incubated ON at 4°C. The incubation with antibody against pTRKB.Y816, PLC-γ1 or pY (1:2000, ON, 4°C) was followed by HRP-conjugated anti-Rb IgG (1:5000, 2h, RT) or HRP-conjugated streptavidin (1:10000, 2h, RT). Finally, the chemiluminescent signal generated by the reaction with ECL was analyzed in a plate reader (Varioskan Flash, Thermo Scientific).

[6] = test system: GluR1 subunit of AMPA receptors; test: Surface GluR1 ELISA in cortical cells of TRKB.Y433F mice; format: cell-based, mouse
Protocol: (§2) Briefly, the MG87.TRKB cells or primary cortical cells from rat or mouse embryos, cultivated in clear bottom 96-well plates (ViewPlate 96, Perkin Elmer), were washed with ice-cold PBS and fixed with 100μl of 4% PFA per well. […] Following washing, the samples were incubated with HRP-conjugated anti-goat or anti-rabbit IgG (1:5000 in blocking buffer) for 1h at RT. The cells were washed 4x with 200μl of PBS for 10 min each. Finally, the chemiluminescent signal generated by reaction with ECL was analyzed in a plate reader.

[7] = test system: GluR1 subunit of AMPA receptors; test: Surface GluR1 ELISA in rat cortical cells; format: cell-based
Protocol: as §2

[8] = biological target: T2, TRKB.Y433F (Mus musculus, UniProt P15209, Y433F); test: Cell-free ligand binding assay, TRKB.Y433F mutant; details: tritiated imipramine, biotinylated R,R-HNK
T2 construct: wild-type GFP-tagged full length TRKB or the GFP-tagged Y433F TRKB mutant; host or cells: HEK293T
T2 sequence (P15209 32-821 Y433F): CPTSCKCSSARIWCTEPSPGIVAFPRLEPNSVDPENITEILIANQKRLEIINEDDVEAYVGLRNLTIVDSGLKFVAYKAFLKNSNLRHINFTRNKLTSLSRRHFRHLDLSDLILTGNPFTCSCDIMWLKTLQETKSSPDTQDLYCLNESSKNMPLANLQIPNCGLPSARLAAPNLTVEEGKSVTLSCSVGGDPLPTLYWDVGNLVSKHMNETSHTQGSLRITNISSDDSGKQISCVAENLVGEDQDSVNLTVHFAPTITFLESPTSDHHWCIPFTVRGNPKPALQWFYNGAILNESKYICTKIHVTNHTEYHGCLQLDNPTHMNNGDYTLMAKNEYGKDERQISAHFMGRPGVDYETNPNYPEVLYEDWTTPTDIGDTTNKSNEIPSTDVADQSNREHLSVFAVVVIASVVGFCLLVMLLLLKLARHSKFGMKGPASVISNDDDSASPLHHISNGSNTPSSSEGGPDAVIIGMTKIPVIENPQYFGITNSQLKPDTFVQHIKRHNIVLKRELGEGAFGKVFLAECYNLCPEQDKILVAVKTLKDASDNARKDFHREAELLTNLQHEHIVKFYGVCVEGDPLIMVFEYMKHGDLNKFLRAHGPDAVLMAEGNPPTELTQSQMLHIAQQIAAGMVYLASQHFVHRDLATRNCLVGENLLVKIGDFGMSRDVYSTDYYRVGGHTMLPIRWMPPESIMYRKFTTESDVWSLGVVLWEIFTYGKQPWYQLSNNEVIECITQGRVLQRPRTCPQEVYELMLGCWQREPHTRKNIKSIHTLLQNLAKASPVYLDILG
Protocol: as §1

[9] = test system: mice; test: Object location memory (OLM) test; format: in vivo, mouse; details: wild-type mice, R,R-HNK
Protocol: Object-location memory (OLM): this test was performed in a square arena (28cm side) with opaque walls containing cues (black stripes or spots). The adult male and female mice (18-22 weeks old) were placed for 3 consecutive days (15min per session) in the arena with two identical objects (table tennis balls glued to caps of 50ml Falcon tubes) in the same position throughout the sessions (pretest).

T1 sequence (P15209 32-821): as the sequence (P15209 32-821 Y433F) above, with F402Y counted along it

N[C@@]1(c2ccccc2Cl)CCC[C@@H](O)C1=O [R,R-HNK, 2R,6R-hydroxynorketamine]
displacement of biotinylated FLX from TRKB [1]: readily displaced | Ki ([1]; read-out: Ki for displacement of biotinylated FLX from TRKB): 2.23 µM | effect on shift in ocular dominance ([2]; TRKB.Y433F mice): lost | shift in ocular dominance after 7-day monocular deprivation ([2]; adult mice, 10 mg/kg i.p. every second day for 8 days): significant shift in OD | effect on shift in ocular dominance ([2]; wild-type mice co-treated with pravastatin): lost | affinity to NMDA receptors [3]: low affinity | Kd [4]: 1.82 µM | TRKB interaction with PLC-γ1 [5]: increased TRKB interaction with PLC-γ1 | increase in surface GluR1 in neurons from TRKB.Y433F mutant mice [6]: prevented | cell surface localization of GluR1 subunits of AMPA receptors [7]: increased cell surface localization of GluR1 subunits | affinity to TRKB.Y433F compared with wild-type TRKB [8]: much lower than to the wild-type TRKB | object location memory [9]: improved object location memory
